Here are results for three molecules from patent US20080160019A1, “SEQUENTIAL COMBINATION THERAPY” (DYAX CORP., priority 2006, published 2008).

What all share (format): in vivo, nude mice (nu/nu)
Experiment [1] has as its system BxPC-3 human pancreas cancer model. The experiment is described as follows: BxPC-3 pancreas cancer model, dosing schedules, mean tumor volume (Example 5). Particulars: 20 mg/kg IP Q2D x10 from day 1, implanted tumor fragments. Here is the method:
Female nude mice (nu/nu) were divided into 14 groups. Animals in groups 1-12 were implanted subcutaneously by trocar with BxPC3 tumor fragments harvested from growing tumors in nude mice hosts. Mice in groups 13-14 were injected subcutaneously with approximately 1×10^7 BxPC-3 cells from tissue culture. When injected tumors grew to approximately 104 mm^3 in size (about 19 days following implantation) and implanted tumors grew to approximately 110 mm^3 in size (about 22 days following implantation) animals were pair-matched by tumor size into treatment and control groups. Animals from groups 1 and 2 were used to evaluate tumor vasculature. Animals from groups 13 and 14 were used to compare effects of DX-2240 on tumors formed from cell injection.
Treatment was initiated after the animals were pair-matched (day 1). Animals in all groups were dosed by weight (10 ml/kg). The control IgG and DX-2240 were administered by IP injection at 20 mg/kg, and bevacizumab and the rat α-mouse VEGF IgG antibody were administered by IP injection at 10 mg/kg once every three days. Dosing was initiated on day −3, 1, 5, 6, 10 or 20.
Individual and group mean tumor volumes were recorded twice weekly from day 1 until day 39.

Experiment [2] relates to BxPC3 (human pancreatic cancer cell line) tumor. The experiment is described as follows: Pancreatic cancer xenograft model, tumor size by calipers (Example 3). As to calculated tumor growth rate, After Avastin: unit not given here. As to calculated tumor growth rate, Before Avastin (Day 10): unit not given here. As to calculated tumor growth rate, Before Avastin (Day 21): unit not given here. How it is done:
The antitumor activity of combinations of DX-2240 and bevacizumab (anti-VEGF antibody) or sorafenib (multi-kinase inhibitor) were tested in a human tumor xenograft model. BxPC3 (human pancreatic cancer cell line) tumor fragments harvested from host nude mice (nu/nu) bearing subcutaneous BxPC-3 tumors were implanted subcutaneously into female nude mice (study animals) and allowed to form tumors. Mice were pair matched by tumor size and randomized into the various treatment groups when the tumors reached approximately 100 mm^3 (about 18 days following tumor implantation). The animals were assorted into the treatment groups shown in Table 1 (“Start” refers to the day on which treatment was begun). DX-2240 was administered by intraperitoneal (IP) injection at 20 mg/kg; bevacizumab was administered by IP injection at 10 mg/kg, sorafenib was administered orally at 60 mg/kg (for a total of 9 doses), and the control IgG (palivizumab, an antibody of the same isotype as DX-2240) was administered by IP injection at 20 mg/kg at the indicated dosing start dates and dosing regimens. An additional positive control group (group 13) was included: these animals were dosed with gemcitabine at 40 mg/kg Q3d for a total of four doses.
Tumor size was evaluated every three to four days using calipers.

The next experiment concerns tumor vasculature. The experiment is described as follows: Lectin staining of tumors (tumor vasculature, Example 5). Also: unit not given here. Conditions: 20 mg/kg IP Q2D from day 1, BxPC3 tumors. Here is the method: To determine changes in tumor vasculature, three animals from each of groups 1 and 2 were randomly selected for destructive sample collection, including tumor and serum on days 5, 10, 15, and 20. Animals were injected IV with 150 μL of a biotinylated-lectin solution (no injections on day 5 and 15). Five minutes later, animals were perfused by intracardiac injection with a 1% paraformaldehyde solution in PBS for 3 minutes. Tumors were then collected, placed in the perfusion solution, and sent immediately for analysis. Blood was collected by cardiac puncture and serum extracted, flash frozen in liquid nitrogen, and stored at −80° C.

The subject of experiment [3] is DU 145 human prostate tumor model. The experiment is described as follows: DU 145 prostate tumor model, mean tumor volume (Example 6). Particulars: 20 mg/kg IP Q2D x17 from day 1. Here is the method:
Male nude mice (nu/nu) were injected subcutaneously with DU 145 cells harvested from tissue culture (˜1×10^7 cells/mouse). When tumors grew to approximately 95 mm^3 in size (about 7 days following injection), animals were pair-matched by tumor size into treatment and control groups.
Treatment was initiated after the animals were paired-matched (day 1). Animals in control and treatment groups were dosed by weight (10 ml/kg). DX-2240 and the control IgG (palivizumab) were administered by IP injection either once every other day for seventeen treatments beginning day 1 or once every four days for nine treatments beginning day 1. Sorafenib was dosed per os via gavage once daily for nine treatments beginning day 15. To serve as a control, the control IgG was administered every other day for seventeen treatments beginning day 1. Individual and group mean tumor volumes were recorded twice weekly from day 1 until day 57.

In the case of “Control IgG: palivizumab, an antibody of the same isotype as DX-2240 [reference compound]”, the mean tumor volume in experiment [1] (day 1) is on record as 107.6 mm^3; in experiment [1] (day 4), 180.1 mm^3; in experiment [1] (day 8), 237.7 mm^3; in experiment [1] (day 11), 249.9 mm^3; in experiment [1] (day 15), 355.9 mm^3; in experiment [1] (day 18), 300.0 mm^3. The mean tumor volume in experiment [3] (day 1) came out at 94.9 mm^3; in experiment [3] (day 5) it was 125.7 mm^3; in experiment [3] (day 9), 195.1 mm^3; in experiment [3] (day 13) it was 293.5 mm^3; in experiment [3] (day 15), 320.9 mm^3; in experiment [3] (day 19) it was 400.7 mm^3. Also, the mean tumor volume is recorded as 417.8 mm^3 in experiment [3] (day 23); 487.6 mm^3 in experiment [3] (day 26); 450.5 mm^3 in experiment [3] (day 29); 501.1 mm^3 in experiment [3] (day 33); 529.3 mm^3 in experiment [3] (day 36). The “calculated tumor growth rate, After Avastin” value is 23.8 ± 8.6 in experiment [2] (DX-2240 or control IgG 20 mg/kg IP Q2d from day 1, after bevacizumab 10 mg/kg IP Q3d (twenty day pretreatment groups)) and 33.3 ± 6.6 in experiment [2] (DX-2240 or control IgG 20 mg/kg IP Q2d from day 1, after bevacizumab 10 mg/kg IP Q3d started at day 10). Besides, in experiment [2] (DX-2240 or control IgG 20 mg/kg IP Q2d from day 1, before bevacizumab (twenty day pretreatment groups)), the “calculated tumor growth rate, Before Avastin (Day 21)” value is 28.3 ± 5.2. Further, the “calculated tumor growth rate, Before Avastin (Day 10)” value in experiment [2] (DX-2240 or control IgG 20 mg/kg IP Q2d from day 1, before bevacizumab start at day 10) is listed as 41.1 ± 9.0. For the same molecule, the “# of stable tumor growths or tumor regressions” value is given as 1/8 in experiment [2] (DX-2240 or control IgG from day 1, bevacizumab (Avastin) after twenty day pretreatment) and 0/8 in experiment [2] (DX-2240 or control IgG from day 1, bevacizumab (Avastin) from day 10). Further, the Tumor volume turned out to be 106.9 mm^3 in experiment [2] (day 1, 20 mg/kg IP Q2d from day 1); 164.7 mm^3 in experiment [2] (day 3, 20 mg/kg IP Q2d from day 1); 293.2 mm^3 in experiment [2] (day 7, 20 mg/kg IP Q2d from day 1); 366.4 mm^3 in experiment [2] (day 10, 20 mg/kg IP Q2d from day 1); 521.8 mm^3 in experiment [2] (day 14, 20 mg/kg IP Q2d from day 1); 907.5 mm^3 in experiment [2] (day 21, 20 mg/kg IP Q2d from day 1). Further, the Tumor volume amounted to 1062.0 mm^3 in experiment [2] (day 24, 20 mg/kg IP Q2d from day 1); 1354.0 mm^3 in experiment [2] (day 28, 20 mg/kg IP Q2d from day 1); 1669.1 mm^3 in experiment [2] (day 31, 20 mg/kg IP Q2d from day 1). Further, the “lectin staining, High intensity (3+)” value with tumor vasculature (Day 10) amounted to 19242; in the experiment with tumor vasculature (Day 20) it was 7824. Also, the “lectin staining, Low intensity (1+)” value in the experiment with tumor vasculature (Day 10) is listed as 1214685; with tumor vasculature (Day 20) it was 222879. Besides, the “lectin staining, Medium intensity (2+)” value in the experiment with tumor vasculature (Day 10) turned out to be 3148400; in the experiment with tumor vasculature (Day 20), 272402.

Regarding `Nc1ccn([C@@H]2O[C@H](CO)[C@@H](O)C2(F)F)c(=O)n1` [gemcitabine], the Tumor volume in experiment [2] (day 1, 40 mg/kg Q3d, four doses (positive control group 13)) stood at 106.5 mm^3; in experiment [2] (day 3, 40 mg/kg Q3d, four doses (positive control group 13)), 144.1 mm^3; in experiment [2] (day 7, 40 mg/kg Q3d, four doses (positive control group 13)), 214.9 mm^3; in experiment [2] (day 10, 40 mg/kg Q3d, four doses (positive control group 13)) it was 280.8 mm^3; in experiment [2] (day 14, 40 mg/kg Q3d, four doses (positive control group 13)), 347.7 mm^3; in experiment [2] (day 21, 40 mg/kg Q3d, four doses (positive control group 13)) it was 686.1 mm^3. For the same molecule, the Tumor volume in experiment [2] (day 24, 40 mg/kg Q3d, four doses (positive control group 13)) was 848.1 mm^3; in experiment [2] (day 28, 40 mg/kg Q3d, four doses (positive control group 13)) it was 1084.8 mm^3; in experiment [2] (day 31, 40 mg/kg Q3d, four doses (positive control group 13)), 1325.2 mm^3.

On to `CNC(=O)c1cc(Oc2ccc(NC(=O)Nc3ccc(Cl)c(C(F)(F)F)c3)cc2)ccn1` [sorafenib], for which the “tumor size as compared to control” value in experiment [2] (as single agents) is “reduced tumor size”.
